Test results published in US6822097B1, “Compounds and methods of uses” (Amgen, Inc., priority 2002, dated 2004).
Structures can show the parent of a compound that is named as a salt.

Structure (SMILES) | melting point
Nc1c(-c2csc(-c3ccncc3)n2)c(=O)[nH]c2ccc(N3CCCCC3)cc12 [Example 7, 3-[2-(4-Pyridyl)-4-thiazolyl]-4-amino-6-(1-piperidinyl)-2(1H) -quinolinone] | 199 to 202 °C
CCN(CC)C(=O)c1ccc2cc(-c3csc(N(C)S(=O)(=O)c4ccccc4)n3)c(=O)[nH]c2c1 [Example 8767, N,N-Diethyl-3-(2-(methyl(phenylsulfonyl)amino)-1,3-thiazol-4-yl)-2-oxo-1,2-dihydro-7-quinolinecarboxamide] | 200 to 202 °C
COC(=O)c1cccc2[nH]c(=O)c(-c3csc(-c4ccncc4)n3)cc12 [Example 8, 1,2-Dihydro-2-oxo-3-[2-(4-pyridyl)-4-thiazolyl]-5-quinolinecarboxylic acid methyl ester] | > 250 °C
CN(C)CCN(C)C(=O)c1ccc2cc(-c3csc(N(C)S(=O)(=O)c4ccccc4)n3)c(=O)[nH]c2c1 [Example 8788, 3-[2-(Benzenesulfonyl-methyl-amino)-thiazol-4-yl]-2-oxo-1,2-dihydro-quinoline-7-carboxylic acid (2-dimethylamino-ethyl)-methyl-amide] | 144 to 148 °C
O=c1[nH]c2cc3c(cc2cc1-c1csc(-c2ccncc2)n1)OCO3 [Example 18, 7-(2-(4-Pyridinyl)-1,3-thiazol-4-yl)[1,3]dioxolo[4,5-g]quinolin-6(5H)-one] | 167 to 169 °C
CCN(CC)C(=O)c1cccc2[nH]c(=O)c(-c3csc(-c4ccncc4)n3)cc12 [Example 11, N,N-Diethyl-1,2-dihydro-2-oxo-3-[2-(4-pyridyl)-4-thiazolyl]-5-quinolinecarboxamide] | 210 °C (dec.)
O=c1[nH]c2ccccc2cc1-c1csc(Nc2ccccc2F)n1 [Example 78, 3-{2-[(2-Fluorophenyl)amino]-1,3-thiazol-4-yl}hydroquinolin-2-one] | 277 to 278 °C (dec.)
CNc1nc(-c2cc3ccccc3[nH]c2=O)cs1 (as salt: hydrobromid) [Example 75, 3-[2-(Methylamino)-1,3-thiazol-4-yl]hydroquinolin-2-one hydrobromide] | 292 to 293 °C
CS(=O)(=O)c1ccc(-c2csc(-c3cc4ccccc4[nH]c3=O)n2)cc1 [Example 112, 3-{4-[4-(Methylsulfonyl)phenyl]-1,3-thiazol-2-yl}hydroquinolin-2-one] | > 300 °C
CN1CCN(C(=O)c2ccc3cc(-c4csc(N(C)S(=O)(=O)c5ccccc5)n4)c(=O)[nH]c3c2)CC1 [Example 8765, N-Methyl-N-{4-[7-(4-methyl-piperazine-1-carbonyl)-2-oxo-1,2-dihydro-quinolin-3-yl]-thiazol-2-yl}-benzenesulfonamide] | 242 to 247 °C
CN(c1nc(-c2cc3ccccc3[nH]c2=O)cs1)S(=O)(=O)c1ccc(Br)cc1 [Example 8730, 4-Bromo-N-methyl-N-[4-(2-oxo-1,2-dihydro-quinolin-3-yl)-thiazol-2-yl]-benzenesulfonamide] | 280 to 282 °C
O=c1[nH]c2ccccc2cc1-c1csc(NS(=O)(=O)c2ccc(OC(F)(F)F)cc2)n1 [Example 74, 3-[2-({[4-(Trifluoromethoxy)phenyl]sulfonyl}amino)-1,3-thiazol-4-yl]hydroquinolin-2-one] | > 300 °C

Continued, values first:

melting point | Structure (SMILES)
> 250 °C | Cc1c(-c2csc(-c3ccncc3)n2)c(=O)[nH]c2ccccc12 [Example 3, 3-[2-(4-Pyridyl)-4-thiazolyl]-4-methyl-2(1H)-quinolinone]
214 to 216 °C | C=CCN(c1nc(-c2cc3ccccc3[nH]c2=O)cs1)S(=O)(=O)c1ccccc1 [Example 8729, N-Allyl-N-[4-(2-oxo-1,2-dihydro-quinolin-3-yl)-thiazol-2-yl]-benzenesulfonamide]
> 300 °C | O=c1[nH]c2ccccc2cc1-c1nc(-c2ccncc2)cs1 (as salt: salt) [Example 111, 3-(4-Pyridin-4-yl-thiazol-2-yl)-1H-quinolin-2-one]
> 300 °C | CN(C(=O)c1ccccc1)c1nc(-c2cc3ccccc3[nH]c2=O)cs1 [Example 76, N-Methyl-N-[4-(2-oxo(3-hydroquinolyl))(1,3-thiazol-2-yl)]benzamide]
230 to 232 °C | O=c1[nH]c2ccccc2cc1-c1csc(-c2cccnc2)n1 [Example 2, 3-[2-(3-Pyridyl)-4-thiazolyl]-2(1H)-quinolinone]
309 to 311 °C (dec.) | O=C(Nc1nc(-c2cc3ccccc3[nH]c2=O)cs1)c1ccccc1 (as salt: HCl) [Example 71, N-[4-(2-Oxo(3-hydroquinolyl))(1,3-thiazol-2-yl)]benzamide]
> 300 °C | Nc1nc(-c2cc3ccccc3[nH]c2=O)cs1 (as salt: hydrobromid) [Example 66, 3-(2-Amino-1,3-thiazol-4-yl)hydroquinolin-2-one]
> 250 °C | COc1cc2[nH]c(=O)c(-c3csc(-c4ccncc4)n3)c(N)c2cc1OC [Example 19, 3-[2-(4-pyridyl)-4-thiazolyl]-4-amino-6,7-dimethoxy-2(1H)-quinolinone]
> 300 °C | O=c1[nH]c2ccccc2cc1-c1csc(NS(=O)(=O)c2ccc(Cl)cc2)n1 [Example 8789, 4-Chloro-N-(4-(2-oxo-1,2-dihydro-3-quinolinyl)-1,3-thiazol-2-yl)benzenesulfonamide]
> 300 °C | N#Cc1ccc(-c2csc(-c3cc4ccccc4[nH]c3=O)n2)cc1 [Example 113, 4-[2-(2-Oxo-3-hydroquinolyl)-1,3-thiazol-4-yl]benzenecarbonitrile]
> 250 °C | O=c1[nH]c2ccccc2c(-c2ccccc2)c1-c1csc(-c2ccncc2)n1 [Example 4, 3-[2-(4-Pyridyl)-4-thiazolyl]-4-phenyl-2(1H)-quinolinone]
> 250 °C | Nc1c(-c2csc(-c3ccncc3)n2)c(=O)[nH]c2ccccc12 (as salt: salt) [Example 6, 3-[2-(4-Pyridyl)-4-thiazolyl]-4-amino-2(1H)-quinolinone]
> 300 °C | O=c1[nH]c2ccccc2cc1-c1nc(-c2cccc([N+](=O)[O-])c2)cs1 [Example 114, 3-[4-(3-Nitrophenyl)-1,3-thiazol-2-yl]hydroquinolin-2-one]
> 300 °C | CN(c1nc(-c2cc3ccccc3[nH]c2=O)cs1)S(=O)(=O)c1cn(C)cn1 [Example 8732, N,1-Dimethyl-N-(4-(2-oxo-1,2-dihydro-3-quinolinyl)-1,3-thiazol-2-yl)-1H-imidazole-4-sulfonamide]
237 to 239 °C | O=c1[nH]c2ccccc2cc1-c1csc(NCCN2CCOCC2)n1 (as salt: hydrobromid) [Example 80, 3-{2-[(2-Morpholin-4-ylethyl)amino]-1,3-thiazol-4-yl}hydroquinolin-2-one hydrobromide]
> 220 °C | Nc1nc(-c2c(-c3ccccc3)c3ccccc3[nH]c2=O)cs1 [Example 23, 3-(2-Amino-4-thiazolyl)-4-phenyl-2(1H)-quinolinone]
> 220 °C | Nc1c(-c2csc(-c3ccncc3)n2)c(=O)[nH]c2ccc(Cl)cc12 [Example 21, 3-[2-(4-Pyridyl)-4-thiazolyl]-4-amino-6-chloro-2(1H)-quinolinone]
